# Measured values as given in ChEMBL document CHEMBL4507303, “Data for DCP probe TP-004” (2021).
# How the values were obtained:
# [1] = molecular target: Non-receptor tyrosine-protein kinase TYK2 (Homo sapiens) (UniProt P29597); settings: Compound concentration 1000.0 nM
# [2] = molecular target: Calcium/calmodulin-dependent protein kinase type II subunit gamma (Homo sapiens) (UniProt Q13555); settings: Compound concentration 1000.0 nM
# [3] = molecular target: Cyclin-dependent kinase 3 (Homo sapiens) (UniProt Q00526); settings: Compound concentration 1000.0 nM
# [4] = molecular target: Mitogen-activated protein kinase 7 (Homo sapiens) (UniProt Q13164); settings: Compound concentration 1000.0 nM
# [5] = molecular target: Tyrosine-protein kinase receptor UFO (Homo sapiens) (UniProt P30530); settings: Compound concentration 1000.0 nM
# [6] = molecular target: Receptor tyrosine-protein kinase erbB-3 (Homo sapiens) (UniProt P21860); settings: Compound concentration 1000.0 nM
# [7] = molecular target: Fibroblast growth factor receptor 1 (Homo sapiens) (UniProt P11362); settings: Compound concentration 1000.0 nM
# [8] = molecular target: Beta-adrenergic receptor kinase 1 (Homo sapiens) (UniProt P25098); settings: Compound concentration 1000.0 nM
# [9] = molecular target: Transient receptor potential cation channel subfamily M member 6 (Homo sapiens) (UniProt Q9BX84); settings: Compound concentration 1000.0 nM
# [10] = molecular target: cAMP-dependent protein kinase catalytic subunit alpha (Homo sapiens) (UniProt P17612); settings: Compound concentration 1000.0 nM
# [11] = molecular target: Protein kinase C theta type (Homo sapiens) (UniProt Q04759); settings: Compound concentration 1000.0 nM
# [12] = molecular target: 5-hydroxytryptamine receptor 2C (Homo sapiens) (UniProt P28335); settings: Compound concentration 10.0 uM
# [13] = molecular target: NUAK family SNF1-like kinase 2 (Homo sapiens) (UniProt Q9H093); settings: Compound concentration 1000.0 nM
# [14] = molecular target: Dual specificity testis-specific protein kinase 1 (Homo sapiens) (UniProt Q15569); settings: Compound concentration 1000.0 nM
# [15] = molecular target: Ribosomal protein S6 kinase beta-1 (Homo sapiens) (UniProt P23443); settings: Compound concentration 1000.0 nM
# [16] = molecular target: 5-hydroxytryptamine receptor 5A (Homo sapiens) (UniProt P47898); settings: Compound concentration 10.0 uM
# [17] = molecular target: Serine/threonine-protein kinase Nek6 (Homo sapiens) (UniProt Q9HC98); settings: Compound concentration 1000.0 nM
# [18] = molecular target: Casein kinase II subunit alpha (Homo sapiens) (UniProt P68400); settings: Compound concentration 1000.0 nM
# [19] = molecular target: Serine/threonine-protein kinase 32B (Homo sapiens) (UniProt Q9NY57); settings: Compound concentration 1000.0 nM
# [20] = molecular target: Tyrosine-protein kinase Fer (Homo sapiens) (UniProt P16591); settings: Compound concentration 1000.0 nM
# Sequence of Tyrosine-protein kinase Fer (Homo sapiens) (P16591 whole entry, looked up): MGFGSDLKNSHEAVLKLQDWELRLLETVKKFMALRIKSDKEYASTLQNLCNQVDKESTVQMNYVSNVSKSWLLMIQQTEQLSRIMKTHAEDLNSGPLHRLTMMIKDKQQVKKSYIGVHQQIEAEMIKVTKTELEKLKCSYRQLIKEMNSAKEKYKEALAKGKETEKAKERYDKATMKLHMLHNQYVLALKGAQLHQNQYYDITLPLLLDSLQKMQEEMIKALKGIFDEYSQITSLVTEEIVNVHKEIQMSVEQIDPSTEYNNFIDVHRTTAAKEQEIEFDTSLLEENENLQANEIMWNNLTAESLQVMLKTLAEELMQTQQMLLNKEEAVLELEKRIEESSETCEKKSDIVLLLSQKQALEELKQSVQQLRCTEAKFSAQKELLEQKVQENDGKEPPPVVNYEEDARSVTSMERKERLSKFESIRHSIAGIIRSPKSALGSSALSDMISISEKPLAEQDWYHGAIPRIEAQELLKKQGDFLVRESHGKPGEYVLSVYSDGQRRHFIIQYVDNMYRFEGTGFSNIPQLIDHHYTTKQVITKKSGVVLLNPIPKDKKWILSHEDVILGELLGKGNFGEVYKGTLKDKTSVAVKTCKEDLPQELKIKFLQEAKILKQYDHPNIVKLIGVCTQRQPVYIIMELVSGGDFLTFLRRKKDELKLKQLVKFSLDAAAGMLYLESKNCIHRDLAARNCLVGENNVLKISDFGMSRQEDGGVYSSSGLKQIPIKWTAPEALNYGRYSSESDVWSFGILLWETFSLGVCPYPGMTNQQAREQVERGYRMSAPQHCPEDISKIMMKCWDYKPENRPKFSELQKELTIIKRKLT
# [21] = molecular target: Eukaryotic translation initiation factor 2-alpha kinase 1 (Homo sapiens) (UniProt Q9BQI3); settings: Compound concentration 1000.0 nM
# [22] = molecular target: Mitogen-activated protein kinase 4 (Homo sapiens) (UniProt P31152); settings: Compound concentration 1000.0 nM
# Sequence of Mitogen-activated protein kinase 4 (Homo sapiens) (P31152 whole entry): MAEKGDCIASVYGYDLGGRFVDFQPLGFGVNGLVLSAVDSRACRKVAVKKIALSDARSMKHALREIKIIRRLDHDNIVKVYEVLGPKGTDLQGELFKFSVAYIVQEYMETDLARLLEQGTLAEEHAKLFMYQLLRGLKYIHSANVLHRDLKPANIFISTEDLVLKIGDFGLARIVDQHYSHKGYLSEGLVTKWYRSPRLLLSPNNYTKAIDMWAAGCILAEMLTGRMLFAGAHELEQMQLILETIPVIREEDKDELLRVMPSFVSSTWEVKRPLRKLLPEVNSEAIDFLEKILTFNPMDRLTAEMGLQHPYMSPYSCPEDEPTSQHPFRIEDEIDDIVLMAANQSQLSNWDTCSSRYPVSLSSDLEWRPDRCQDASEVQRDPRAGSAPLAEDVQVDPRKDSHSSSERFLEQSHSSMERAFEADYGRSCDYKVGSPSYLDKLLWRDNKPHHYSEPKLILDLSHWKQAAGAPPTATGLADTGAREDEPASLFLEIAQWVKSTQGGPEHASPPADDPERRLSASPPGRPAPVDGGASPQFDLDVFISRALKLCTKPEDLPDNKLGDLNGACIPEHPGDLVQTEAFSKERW
# [23] = molecular target: Ephrin type-B receptor 6 (Homo sapiens) (UniProt O15197); settings: Compound concentration 1000.0 nM
# [24] = molecular target: Sigma non-opioid intracellular receptor 1 (Homo sapiens) (UniProt Q99720); settings: Compound concentration 10.0 uM
# [25] = molecular target: Serine/threonine-protein kinase PLK2 (Homo sapiens) (UniProt Q9NYY3); settings: Compound concentration 1000.0 nM
# [26] = molecular target: Phosphatidylinositol 4-kinase beta (Homo sapiens) (UniProt Q9UBF8); settings: Compound concentration 1000.0 nM
# [27] = molecular target: 5'-AMP-activated protein kinase catalytic subunit alpha-2 (Homo sapiens) (UniProt P54646); settings: Compound concentration 1000.0 nM
# [28] = system: Proto-oncogene tyrosine-protein kinase receptor Ret (Homo sapiens), P07949 [V804M]; settings: Compound concentration 1000.0 nM
# [29] = molecular target: Sodium-dependent noradrenaline transporter (Homo sapiens) (UniProt P23975); settings: Compound concentration 10.0 uM
# [30] = molecular target: Ephrin type-B receptor 3 (Homo sapiens) (UniProt P54753); settings: Compound concentration 1000.0 nM
# Sequence of Ephrin type-B receptor 3 (Homo sapiens) (P54753 whole entry): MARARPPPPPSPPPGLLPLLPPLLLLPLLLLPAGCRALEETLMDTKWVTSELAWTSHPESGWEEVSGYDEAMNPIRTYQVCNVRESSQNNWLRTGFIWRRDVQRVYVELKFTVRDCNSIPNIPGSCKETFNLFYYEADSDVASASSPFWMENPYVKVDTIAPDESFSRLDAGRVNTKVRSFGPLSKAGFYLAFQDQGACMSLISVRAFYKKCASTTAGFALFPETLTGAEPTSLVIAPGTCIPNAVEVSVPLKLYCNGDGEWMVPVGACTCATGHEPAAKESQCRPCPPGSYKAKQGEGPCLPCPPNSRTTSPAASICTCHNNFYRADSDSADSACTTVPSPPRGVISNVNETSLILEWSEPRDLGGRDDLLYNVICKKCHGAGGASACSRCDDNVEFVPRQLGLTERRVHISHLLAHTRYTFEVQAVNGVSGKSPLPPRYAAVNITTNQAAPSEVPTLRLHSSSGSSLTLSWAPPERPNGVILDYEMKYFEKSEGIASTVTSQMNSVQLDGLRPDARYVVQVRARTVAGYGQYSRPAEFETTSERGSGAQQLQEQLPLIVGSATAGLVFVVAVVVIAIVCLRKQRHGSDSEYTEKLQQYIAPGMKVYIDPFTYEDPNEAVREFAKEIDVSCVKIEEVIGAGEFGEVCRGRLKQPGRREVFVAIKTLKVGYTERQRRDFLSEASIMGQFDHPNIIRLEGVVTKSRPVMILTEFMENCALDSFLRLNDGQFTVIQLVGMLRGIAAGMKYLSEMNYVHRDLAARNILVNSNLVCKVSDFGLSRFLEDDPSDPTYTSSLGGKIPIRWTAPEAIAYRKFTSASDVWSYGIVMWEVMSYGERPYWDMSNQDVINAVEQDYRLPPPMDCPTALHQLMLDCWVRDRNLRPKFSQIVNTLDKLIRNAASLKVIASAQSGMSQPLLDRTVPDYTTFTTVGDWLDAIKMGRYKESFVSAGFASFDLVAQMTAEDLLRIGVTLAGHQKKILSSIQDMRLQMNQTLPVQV
# [31] = molecular target: Non-receptor tyrosine-protein kinase TNK1 (Homo sapiens) (UniProt Q13470); settings: Compound concentration 1000.0 nM
# Sequence of Non-receptor tyrosine-protein kinase TNK1 (Homo sapiens) (Q13470 whole entry): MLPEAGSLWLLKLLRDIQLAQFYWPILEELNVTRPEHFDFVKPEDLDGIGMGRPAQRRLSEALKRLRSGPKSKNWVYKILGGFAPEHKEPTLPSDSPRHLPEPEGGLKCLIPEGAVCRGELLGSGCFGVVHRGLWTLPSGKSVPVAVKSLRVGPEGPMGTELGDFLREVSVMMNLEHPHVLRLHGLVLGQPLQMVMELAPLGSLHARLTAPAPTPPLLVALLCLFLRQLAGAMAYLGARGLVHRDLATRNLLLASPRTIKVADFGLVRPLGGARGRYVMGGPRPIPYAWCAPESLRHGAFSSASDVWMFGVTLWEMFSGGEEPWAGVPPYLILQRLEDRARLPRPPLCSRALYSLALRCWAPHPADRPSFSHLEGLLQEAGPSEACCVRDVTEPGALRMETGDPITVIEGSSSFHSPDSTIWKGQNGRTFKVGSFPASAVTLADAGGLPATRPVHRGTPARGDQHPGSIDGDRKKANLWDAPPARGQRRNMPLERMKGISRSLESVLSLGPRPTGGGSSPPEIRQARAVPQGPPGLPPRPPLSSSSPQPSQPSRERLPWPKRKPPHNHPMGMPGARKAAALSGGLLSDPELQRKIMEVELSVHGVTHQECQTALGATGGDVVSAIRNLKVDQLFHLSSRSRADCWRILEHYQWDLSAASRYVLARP
# [32] = molecular target: Cyclin-dependent kinase-like 3 (Homo sapiens) (UniProt Q8IVW4); settings: Compound concentration 1000.0 nM
# [33] = system: Receptor-type tyrosine-protein kinase FLT3 (Homo sapiens), P36888 [R834Q]; settings: Compound concentration 1000.0 nM
# [34] = molecular target: Serine/threonine-protein kinase PAK 3 (Homo sapiens) (UniProt O75914); settings: Compound concentration 1000.0 nM
# [35] = system: Tyrosine-protein kinase ABL1 (Homo sapiens), P00519 [H396P]; settings: Compound concentration 1000.0 nM
# [36] = system: Tyrosine-protein kinase ABL1 (Homo sapiens), P00519 [Y253F]; settings: Compound concentration 1000.0 nM
# [37] = molecular target: Mitogen-activated protein kinase kinase kinase 10 (Homo sapiens) (UniProt Q02779); settings: Compound concentration 1000.0 nM
# [38] = molecular target: GABA-A receptor; anion channel; assay: GPCRScan assay: inhibition of GABAA/BZP; assay type: protein-complex assay, Rattus norvegicus; set-up: radioligand conc. used [nm] 0.6 – 4.0, parental cells brain tissue
# [39] = system: Phosphatidylinositol 4,5-bisphosphate 3-kinase catalytic subunit alpha isoform (Homo sapiens), P42336 [Q546K]; settings: Compound concentration 1000.0 nM
# Sequence of Phosphatidylinositol 4,5-bisphosphate 3-kinase catalytic subunit alpha isoform (Homo sapiens), P42336 [Q546K] (P42336 whole entry Q546K, canonical isoform): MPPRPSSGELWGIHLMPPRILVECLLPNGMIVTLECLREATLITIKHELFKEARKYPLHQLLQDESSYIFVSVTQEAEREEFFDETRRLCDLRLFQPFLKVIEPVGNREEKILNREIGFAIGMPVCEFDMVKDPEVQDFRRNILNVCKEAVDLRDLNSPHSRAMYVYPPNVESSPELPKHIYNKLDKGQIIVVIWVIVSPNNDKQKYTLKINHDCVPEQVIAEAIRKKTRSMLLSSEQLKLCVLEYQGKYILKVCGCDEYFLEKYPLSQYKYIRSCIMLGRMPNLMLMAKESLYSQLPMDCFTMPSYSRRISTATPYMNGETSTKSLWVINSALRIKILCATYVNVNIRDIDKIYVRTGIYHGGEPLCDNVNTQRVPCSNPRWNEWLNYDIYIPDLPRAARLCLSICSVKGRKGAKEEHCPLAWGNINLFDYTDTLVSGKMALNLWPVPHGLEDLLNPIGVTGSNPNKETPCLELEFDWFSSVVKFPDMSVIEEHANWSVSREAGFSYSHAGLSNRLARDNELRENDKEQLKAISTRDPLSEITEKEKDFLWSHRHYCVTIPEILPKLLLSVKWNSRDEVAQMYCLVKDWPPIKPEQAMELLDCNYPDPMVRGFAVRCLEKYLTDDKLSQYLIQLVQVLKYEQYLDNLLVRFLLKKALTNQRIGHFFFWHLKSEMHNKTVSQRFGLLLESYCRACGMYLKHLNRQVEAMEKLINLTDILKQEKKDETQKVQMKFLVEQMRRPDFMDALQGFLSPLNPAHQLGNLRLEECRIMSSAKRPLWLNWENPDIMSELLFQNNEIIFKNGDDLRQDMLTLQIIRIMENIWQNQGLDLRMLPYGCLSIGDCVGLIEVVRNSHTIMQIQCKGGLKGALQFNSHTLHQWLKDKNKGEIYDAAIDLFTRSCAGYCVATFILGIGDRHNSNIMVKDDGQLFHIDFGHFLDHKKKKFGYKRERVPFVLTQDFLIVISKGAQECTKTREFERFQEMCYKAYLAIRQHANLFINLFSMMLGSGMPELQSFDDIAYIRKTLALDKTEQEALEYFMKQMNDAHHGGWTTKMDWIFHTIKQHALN
# [40] = molecular target: Ribosomal protein S6 kinase alpha-3 (Homo sapiens) (UniProt P51812); settings: Compound concentration 1000.0 nM
# Sequence of Ribosomal protein S6 kinase alpha-3 (Homo sapiens) (P51812 whole entry, the tested form may be a part): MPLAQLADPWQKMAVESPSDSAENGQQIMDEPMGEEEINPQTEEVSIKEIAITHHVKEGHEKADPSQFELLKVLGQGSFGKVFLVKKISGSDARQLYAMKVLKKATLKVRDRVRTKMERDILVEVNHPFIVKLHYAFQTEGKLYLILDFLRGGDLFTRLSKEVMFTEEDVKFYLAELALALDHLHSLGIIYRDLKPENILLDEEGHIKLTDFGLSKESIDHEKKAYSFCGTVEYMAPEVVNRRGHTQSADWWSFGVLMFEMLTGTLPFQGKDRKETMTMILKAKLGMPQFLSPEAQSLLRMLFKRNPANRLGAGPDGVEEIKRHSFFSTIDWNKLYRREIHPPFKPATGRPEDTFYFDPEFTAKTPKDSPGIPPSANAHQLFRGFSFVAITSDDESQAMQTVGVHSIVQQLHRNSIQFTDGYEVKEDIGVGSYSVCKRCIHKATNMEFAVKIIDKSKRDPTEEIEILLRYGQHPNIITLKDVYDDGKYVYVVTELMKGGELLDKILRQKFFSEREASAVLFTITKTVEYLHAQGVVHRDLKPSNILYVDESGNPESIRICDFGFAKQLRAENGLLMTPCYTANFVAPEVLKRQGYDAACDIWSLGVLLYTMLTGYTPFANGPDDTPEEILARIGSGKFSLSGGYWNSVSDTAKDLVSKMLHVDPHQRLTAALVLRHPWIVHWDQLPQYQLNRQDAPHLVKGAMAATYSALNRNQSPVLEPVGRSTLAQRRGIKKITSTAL
# [41] = molecular target: Discoidin domain-containing receptor 2 (Homo sapiens) (UniProt Q16832); settings: Compound concentration 1000.0 nM
# [42] = molecular target: SRSF protein kinase 2 (Homo sapiens) (UniProt P78362); settings: Compound concentration 1000.0 nM
# [43] = molecular target: cGMP-dependent protein kinase 2 (Homo sapiens) (UniProt Q13237); settings: Compound concentration 1000.0 nM
# [44] = system: Tyrosine-protein kinase ABL1 (Homo sapiens), P00519 [Q252H]; settings: Compound concentration 1000.0 nM
# [45] = molecular target: Ribosomal protein S6 kinase alpha-1 (Homo sapiens) (UniProt Q15418); settings: Compound concentration 1000.0 nM
smiles,measurement,setting,value
Cc1nc(N2CC[C@@H](O)C2)ncc1-c1cc(C(F)(F)F)cc2[nH]ncc12 [TP-004],residual activity,[1],58%
same,residual activity,[2],100%
same,residual activity,[3],83%
same,residual activity,[4],83%
same,residual activity,[5],80%
same,residual activity,[6],100%
same,residual activity,[7],90%
same,residual activity,[8],42%
same,residual activity,[9],52%
same,residual activity,[10],83%
same,residual activity,[11],100%
same,inhibition,[12],-0.722%
same,residual activity,[13],67%
same,residual activity,[14],94%
same,residual activity,[15],90%
same,inhibition,[16],-2.1%
same,residual activity,[17],89%
same,residual activity,[18],85%
same,residual activity,[19],100%
same,residual activity,[20],97%
same,residual activity,[21],98%
same,residual activity,[22],90%
same,residual activity,[23],36%
same,inhibition,[24],45.5%
same,residual activity,[25],76%
same,residual activity,[26],53%
same,residual activity,[27],100%
same,residual activity,[28],96%
same,inhibition,[29],36.9%
same,residual activity,[30],100%
same,residual activity,[31],100%
same,residual activity,[32],100%
same,residual activity,[33],73%
same,residual activity,[34],72%
same,residual activity,[35],77%
same,residual activity,[36],70%
same,residual activity,[37],100%
same,Ki,[38],4.54 µM
same,residual activity,[39],82%
same,residual activity,[40],58%
same,residual activity,[41],75%
same,residual activity,[42],100%
same,residual activity,[43],100%
same,residual activity,[44],91%
same,residual activity,[45],100%
